According to US20240408057A1, “Composition for preventing or treating cachexia and muscle loss” (METAFINES.CO.LTD., priority 2023, published 2024):
Like-named read-outs stand apart in the source and are kept apart here.

Experiments:
[1] = tested on: MyHC; test: MyHC expression (Western blot) in CCM-treated C2C12 myotubes; format: cell-based, mouse; conditions: 72 hours, compared to other experimental groups (components alone and in combination)
Experimental: (§1) A C2C12 cell line was dispensed into a 6-well plate at 4.0×10^5 cells/well, and then cultured in DMEM medium containing 10% fetal bovine serum (FBS) under 37° C. and 5% CO2 conditions for one day. When the cell density reached about 80%, the medium was replaced with a differentiation medium and the cells were cultured for additional 3 days. After confirming completion of differentiation of the cells, the cells were treated with a mixture, in which the differentiation medium and cancer-cell conditioned medium (CCM) were mixed at a 1:1 ratio, to form a control group, and simultaneously, a test group was set up by treating with the calcium salts of Preparation Examples 1 to 3 according to three predetermined concentrations.
(§2) A C2C12 cell line was dispensed into a 6-well plate at 4.0×10^5 cells/well, and then cultured in DMEM medium containing 10% fetal bovine serum (FBS) under 37° C. and 5% CO2 conditions for one day. When the cell density reached about 80%, the medium was replaced with a differentiation medium and the cells were cultured for additional 3 days.

[2] = tested on: PDK-4; test: PDK-4 expression (Western blot) in CCM-treated C2C12 myotubes; format: cell-based, mouse
Experimental: as §2, with “C2C12” for “A C2C12”, “cells/well” for “cells/well,”, “and” for “and then”, “days. […] After culturing for 72 hours, the cells were collected and analyzed for PDK-4, which is a target marker, by Western blot and the results are summarized in FIG. 6.” for “days.”
as §2
Subsequently, MuRF1, Atrogin1, MyHC, Myogenin (muscle markers) and Calpain 3, PDK-4, and GDF-15 (other target markers for muscle related disease) were analyzed using Western blot, and the relative expression levels for the markers are shown in FIGS. 26 and 28.

[3] = tested on: Myogenin; test: Myogenin expression (Western blot) in CCM-treated C2C12 myotubes; format: cell-based, mouse; conditions: 72 hours, compared to other experimental groups (components alone and in combination)
Experimental: as §1, §2

[4] = tested on: Atrogin1; test: Atrogin1 expression in mouse muscle tissue, CT26 cachexia model; format: in vivo, Balb/c mice; conditions: CT26 Balb/c cachexia model, 21 days
[5] = tested on: IL-1β; test: IL-1β in mouse blood, CT26 cachexia model; format: in vivo, Balb/c mice; conditions: CT26 Balb/c cachexia model, 21 days; G4 PO 200 mpk, G5 IV 100 mpk, G6 IV 200 mpk; vs vehicle control G2
Experimental: (§3) The mice were sacrificed, and IL-1β and lactate were analyzed using the blood serum collected at autopsy, and the results are summarized in FIGS. 48A and 48B.
(§4) In FIG. 48, each group represents the following.

[6] = tested on: Calpain 3; test: Calpain 3 expression (Western blot) in CCM-treated C2C12 myotubes; format: cell-based, mouse
Experimental: as §2, with “C2C12” for “A C2C12”, “cells/well” for “cells/well,”, “and” for “and then”, “days. […] After culturing for 72 hours, the cells were collected and analyzed for PDK-4, which is a target marker, by Western blot and the results are summarized in FIG. 6.” for “days.”
The experiment was performed in the same manner as in Experimental Example 3-1, except that Calpain 3 was analyzed as a target marker for Western blot, and the results are summarized in FIG. 7.
as §2

[7] = tested on: C2C12 myotube cells; test: Myotube diameter (crystal violet, Image J) of CCM-treated C2C12 myotubes; format: cell-based, mouse; conditions: C2C12 myotubes + CCM 1:1, 72 hours
Experimental: A C2C12 cell line was dispensed into a 6-well plate at 4.0×10^5 cells/well, and then cultured in DMEM medium containing 10% fetal bovine serum (FBS) under 37° C. and 5% CO2 conditions for one day. When the cell density reached about 80%, the medium was replaced with a differentiation medium and the cells were cultured for additional 3 days. […] The myotube diameter was measured using Image J from the above image, and the change in myotube cell diameter is summarized in FIG. 17B. A C2C12 cell line was dispensed into a 6-well plate at 4.0×10^5 cells/well, and then cultured in DMEM medium containing 10% fetal bovine serum (FBS) under 37° C. and 5% CO2 conditions for one day. When the cell density reached about 80%, the medium was replaced with a differentiation medium and the cells were cultured for additional 3 days. […] The myotube diameter was measured using Image J from the above images, and the changes in myotube cell diameter are summarized in FIG. 24B.

[8] = tested on: Calpain 3; test: Calpain 3 expression in mouse muscle tissue, CT26 cachexia model; format: in vivo, Balb/c mice; conditions: CT26 Balb/c cachexia model, 21 days, G6 IV 200 mpk
Source text: (§5) In FIG. 47, each group represents the following.

[9] = tested on: GDF-15; test: GDF-15 expression (Western blot) in CCM-treated C2C12 myotubes; format: cell-based, mouse; conditions: C2C12 myotubes + CCM, 72 hours; comparison experiment with components alone and in combination
Experimental: as §2, with “C2C12” for “A C2C12”, “cells/well” for “cells/well,”, “and” for “and then”, “days. […] After culturing for 72 hours, the cells were collected and analyzed for PDK-4, which is a target marker, by Western blot and the results are summarized in FIG. 6.” for “days.”
The analysis was performed in the same manner as in Experimental Example 4-1 except for analyzing GDF-15 as a target marker for a Western blot, and the results are summarized in FIGS. 8 and 9.
The analysis was performed in the same manner as in Experimental Example 3-1 except for analyzing PDK-4 as a target marker for Western blot, and the results are summarized in FIGS. 10 and 11.
as §2

[10] = tested on: MyHC; test: MyHC expression in mouse muscle tissue, CT26 cachexia model; format: in vivo, Balb/c mice; conditions: CT26 Balb/c cachexia model, 21 days; G4 PO 200 mpk, G5 IV 100 mpk, G6 IV 200 mpk; vs vehicle control G2
[11] = Rotarod-treadmill test; format: in vivo, Balb/c mice; conditions: CT26 Balb/c cachexia model; G6 IV 200 mpk
Experimental: After the animal was carefully placed on a Rotarod-treadmill (JD-A-07RA5, B.S Technolab Inc., Korea), and the measurement was made for 300 seconds while increasing the rotation speed from 4 rpm to 40 rpm at regular intervals and, and the results are summarized in FIG. 53A.

[12] = tested on: lactate; test: Lactate in mouse blood, CT26 cachexia model; format: in vivo, Balb/c mice; conditions: CT26 Balb/c cachexia model, 21 days; G4 PO 200 mpk, G5 IV 100 mpk, G6 IV 200 mpk; vs vehicle control G2
Experimental: as §3, §4

[13] = Wire hanging test; format: in vivo, Balb/c mice; conditions: CT26 Balb/c cachexia model; G4 to G6; compared to G3 megestrol (positive control)
Experimental: Along with the above, a wire hanging test was performed once a week, and the animal was placed on top of a wire cage, and then turned the cage upside down and hung over the home cage, and the waiting time until the animal fell was recorded and summarized in FIG. 53B.

[14] = tested on: PDK-4; conditions: CT26 Balb/c cachexia model, 21 days
Source text: The mice were sacrificed, and the skeletal muscle in the quadriceps was extracted during autopsy, and tissue was homogenized, and proteins were extracted through RIPA lysis buffer, followed by Western blot analysis.
as §5

[15] = tested on: MuRF1; test: MuRF1 expression (Western blot) in CCM-treated C2C12 myotubes; format: cell-based, mouse; conditions: 72 hours, compared to other experimental groups (components alone and in combination)
Experimental: as §1, §2

[16] = C2C12 myotubes, differentiation medium:CCM 1:1, 72 hours, three predetermined concentrations, vs CCM control
[17] = G4 PO 200 mpk, G5 IV 100 mpk, G6 IV 200 mpk, vs vehicle control G2

For `O=C([O-])C(Cl)Cl.O=C1OC(C(O)CO)C([O-])=C1O.[Ca+2]` (stereo not drawn) [Preparation Example 1, calcium salts of ascorbic acid and dichloroacetic acid], the “expression of MyHC” value [1] was “excellent effect of inhibiting the decrease of expression”, the “expression of PDK-4” value ([2]; C2C12 myotubes + CCM, 72 hours, comparison experiment with components alone and in combination) was “inhibited” and the “expression level of PDK-4” value [2, 16] was “expression was inhibited”. For the same compound, the “expression of Myogenin” value [3] was “excellent effect of inhibiting the decrease of expression”, the “expression level of Atrogin1 in quadriceps” value [4, 17] was “decrease in the expression levels” and the “expression level of Atrogin1 in quadriceps” value ([4]; G4 to G6, compared to G3 megestrol 125 mpk oral) was “excellent effects decreasing the expression levels”. The “IL-1β in blood serum” value [5] was “decrease in the expression levels”, the “expression level of Calpain 3” value ([6]; C2C12 myotubes + CCM, 72 hours, compared to other experimental groups (components alone and in combination)) was “higher expression level” and the “expression level of Calpain 3” value [6, 16] was “decrease in expression was inhibited”. For the same compound, the “diameter of myotube cells” value ([7]; predetermined concentration, compared to CCM) was “increased the diameter up to a level similar to that of the normal control group (UCM)”, the “concentration from which the diameter reduction of myotubes was significantly inhibited” value ([7]; three predetermined concentrations) was at least 10 µM and the “expression level of Calpain 3 in quadriceps” value ([8]; G4 PO 200 mpk, G5 IV 100 mpk, vs vehicle control G2) was “increase in the expression level”. For the same compound, the “expression level of Calpain 3 in quadriceps” value ([8]; compared to G3 megestrol 125 mpk) was “excellent effect of increasing the expression level”, the “expression of GDF-15” value [9] was “inhibited” and the “expression level of MyHC in quadriceps” value [10] was “increase in the expression levels”. The “Rotarod-treadmill test improvement compared to G2” value [11] was “about 24%”, the “lactate in blood serum” value [12] was “decrease in the expression levels” and the wire hanging test [13] was “level similar”. For the same compound, the “expression level of PDK-4 in quadriceps” value [14, 17] was “decrease in the expression level”, the “expression level of PDK-4 in quadriceps” value ([14]; G4 to G6, compared to G3 megestrol 125 mpk) was “excellent effect of reducing the expression level” and the “expression of MuRF1” value [15] was “excellent effect of inhibiting the increase of expression”.
